Results published in patent US12297210B2, “Naphthyridine compounds and uses thereof” (Genentech, Inc., priority 2018, dated 2025).

target: T1, HPK full length, T165E S171E (Homo sapiens, UniProt Q92918, S171E/T165E); assay: HPK1-FL HTRF Enzymatic Assay ("HTRF"); assay type: biochemical; conditions: ATP 1 mM, read-out: HPK1 Ki (nM) H = HTRF
T1 construct: HPK full length, T165E S171E: 0.125 nM
Protocol: Example B1: HPK1-FL HTRF Enzymatic Assay (“HTRF”)
HPK-FL enzyme phosphorylates Biotin-SLP-76 substrate in the presence of ATP at 1 mM and varying concentrations of test compound. Product is detected by FRET using Eu-anti-pSLP76 Ab and SA-XL665. Also see www.cisbio.com/HTRF for additional HTRF technology information.
• Echo555 compound dispenser • Agilent Bravo • Perkin Elmer Envision Final Assay Conditions: • HPK full length, T165E S171E: 0.125 nM • Biotin-SLP76: 100 nM • ATP: 1 mM (ATP Km=20 μM) • Eu-anti-pSLP76: 2 nM • SA-XL665: 8.3 nM • Preincubation time: 30 min • Kinase reaction time: 60 min • Temperature: ambient • Total volume: 12 μl • ATP^app Km: 17.7 μM Materials: • Assay plate: White ProxiPlate 384 F (PerkinElmer cat #6008289) • Kinase: HPK full length double mutant • Substrate: Biotin-SLP76 • ATP: 100 mM ATP • BSG: 2% BSG • DMSO: DMSO(Sigma cat #34869-100ML) • Reaction Buffer: H2O/50 mM HEPES, pH 7.5/10 mM MgCl2/2 mM TCEP/0.01% Brij-35/0.01% BSG • Detection mix: Eu-anti-pSLP76/SA-XL665 (Cisbio, #610SAXAC) Assay Procedure Ki Determination:
To a 384 well Proxiplate with 80 nL compound or DMSO spotted on was added 4 μl/well kinase mix. The mixture was preincubated for 30 minutes and then 4 μl/well substrate mix was added. The solution was incubated for 60 min and then 4 μl/well detection mix was added. The solution was incubated for another 60 min. The plates were then loaded onto a Perkin Elmer Envision and the TR-FRET signal was measured at 615 and 665 nm. A ratio of […] was used to calculate the % activity at each concentration of compound.

T1 sequence (Q92918 whole entry T165E/S171E): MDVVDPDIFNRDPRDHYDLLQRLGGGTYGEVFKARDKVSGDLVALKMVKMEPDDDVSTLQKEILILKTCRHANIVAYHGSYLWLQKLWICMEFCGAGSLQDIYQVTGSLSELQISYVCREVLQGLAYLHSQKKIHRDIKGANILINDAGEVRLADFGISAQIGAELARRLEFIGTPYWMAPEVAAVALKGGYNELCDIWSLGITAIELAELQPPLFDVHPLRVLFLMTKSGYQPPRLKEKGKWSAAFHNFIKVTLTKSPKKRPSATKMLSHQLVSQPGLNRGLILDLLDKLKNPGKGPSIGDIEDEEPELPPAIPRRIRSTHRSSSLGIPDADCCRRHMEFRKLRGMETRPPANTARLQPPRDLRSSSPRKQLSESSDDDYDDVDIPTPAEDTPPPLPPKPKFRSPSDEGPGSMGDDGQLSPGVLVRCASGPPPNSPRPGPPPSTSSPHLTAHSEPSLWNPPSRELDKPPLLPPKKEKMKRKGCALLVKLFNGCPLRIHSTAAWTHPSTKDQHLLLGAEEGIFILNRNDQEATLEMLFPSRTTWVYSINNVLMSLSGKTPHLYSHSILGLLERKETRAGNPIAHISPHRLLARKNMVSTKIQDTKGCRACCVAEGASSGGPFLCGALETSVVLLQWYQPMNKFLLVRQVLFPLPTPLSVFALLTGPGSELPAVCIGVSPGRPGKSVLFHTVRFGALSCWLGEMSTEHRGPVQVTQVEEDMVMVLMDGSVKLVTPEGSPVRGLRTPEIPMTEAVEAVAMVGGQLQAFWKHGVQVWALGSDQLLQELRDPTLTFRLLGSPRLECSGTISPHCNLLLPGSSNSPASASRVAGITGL

Ki	Compound
2.3 nM	Cc1c(N)cncc1-c1cc2cc(Nc3cc4n(n3)CC(=O)N(C(C)C)CC4)ncc2cn1 [Compound 104, 2-((6-(5-amino-4-methylpyridin-3-yl)-2,7-naphthyridin-3-yl)amino)-6-isopropyl-5,6-dihydro-4H-pyrazolo[1,5-d][1,4]diazepin-7(8H)-one]
2.1 nM	COc1nc(-c2cnc3c(c2C)NCCO3)cc2cc(Nc3cc4n(n3)CC(=O)N(C)CC4)ncc12 [Compound 107, 2-((8-methoxy-6-(8-methyl-2,3-dihydro-1H-pyrido[2,3-b][1,4]oxazin-7-yl)-2,7-naphthyridin-3-yl)amino)-6-methyl-5,6-dihydro-4H-pyrazolo[1,5-d][1,4]diazepin-7(8H)-one]
0.03 nM	Cc1c(-c2cc3cc(Nc4cc5n(n4)CC(=O)N(C)CC54CC4)ncc3c(C)n2)cnc2c1NCCO2 [Compound 109, 6′-methyl-2′-((8-methyl-6-(8-methyl-2,3-dihydro-1H-pyrido[2,3-b][1,4]oxazin-7-yl)-2,7-naphthyridin-3-yl)amino)-5′,6′-dihydrospiro[cyclopropane-1,4′-pyrazolo[1,5-d][1,4]diazepin]-7′(8′H)-one]
4 nM	Cc1c(N)cncc1-c1cc2cc(Nc3cc4n(n3)CC(=O)N(CC(F)F)CC4)ncc2cn1 [Compound 102, 2-((6-(5-amino-4-methylpyridin-3-yl)-2,7-naphthyridin-3-yl)amino)-6-(2,2-difluoroethyl)-5,6-dihydro-4H-pyrazolo[1,5-d][1,4]diazepin-7(8H)-one]
0.85 nM	Cc1c(N)cncc1-c1cc2cc(Nc3cc4n(n3)Cc3nccn3CC4)ncc2c(C)n1 [Compound 105, N-(6-(5-amino-4-methylpyridin-3-yl)-8-methyl-2,7-naphthyridin-3-yl)-5,6-dihydro-11H-imidazo[1,2-a]pyrazolo[1,5-d][1,4]diazepin-8-amine]
2.5 nM	Cc1c(N)cncc1-c1cc2cc(Nc3cc4n(n3)CC(=O)N(C(C)C)CC4)ncc2c(C)n1 [Compound 106, 2-((6-(5-amino-4-methylpyridin-3-yl)-8-methyl-2,7-naphthyridin-3-yl)amino)-6-isopropyl-5,6-dihydro-4H-pyrazolo[1,5-d][1,4]diazepin-7(8H)-one]
13 nM	CNCc1cc(C)c(-c2cc3cc(Nc4cc5n(n4)CC(=O)N(C)CC5)ncc3cn2)c(F)c1 [Compound 110, 2-((6-(2-fluoro-6-methyl-4-((methylamino)methyl)phenyl)-2,7-naphthyridin-3-yl)amino)-6-methyl-5,6-dihydro-4H-pyrazolo[1,5-d][1,4]diazepin-7(8H)-one]
0.66 nM	Cc1c(-c2cc3cc(Nc4cc5n(n4)CC(=O)N(C)CC5)ncc3c(C)n2)cnc2c1NCCO2 [Compound 108, 6-methyl-2-((8-methyl-6-(8-methyl-2,3-dihydro-1H-pyrido[2,3-b][1,4]oxazin-7-yl)-2,7-naphthyridin-3-yl)amino)-5,6-dihydro-4H-pyrazolo[1,5-d][1,4]diazepin-7(8H)-one]

The next lines start with the molecule.

Compound	Ki
Cc1ccncc1-c1cc2cc(Nc3ccc(CO)cn3)ncc2cn1 [Compound 206, (6-((6-(4-methylpyridin-3-yl)-2,7-naphthyridin-3-yl)amino)pyridin-3-yl)methanol]	577 nM
Cc1ccncc1-c1cc2cc(Nc3cc(C(=O)N(C)C)c(N)cn3)ncc2cn1 [Compound 201, 5-amino-N,N-dimethyl-2-((6-(4-methylpyridin-3-yl)-2,7-naphthyridin-3-yl)amino)isonicotinamide]	463 nM
Cc1cc(Nc2cc3cc(C4CC4)ncc3cn2)ncn1 [Compound 209, 6-cyclopropyl-N-(6-methylpyrimidin-4-yl)-2,7-naphthyridin-3-amine]	> 2000 nM
Cc1ccncc1-c1cc2cc(Nc3ccc(S(C)(=O)=O)cn3)ncc2cn1 [Compound 202, 6-(4-methylpyridin-3-yl)-N-(5-(methylsulfonyl)pyridin-2-yl)-2,7-naphthyridin-3-amine]	291 nM

target: T2, HPK1 (Homo sapiens, UniProt Q92918); assay: HPK1 Lantha Binding Assay ("Lanth"); conditions: 15 nM Tracer222, read-out: HPK1 Ki (nM) L = Lanth
T2 construct: purchased Signalchem M23-11G
T2 sequence (Q92918 1-346 limits assumed): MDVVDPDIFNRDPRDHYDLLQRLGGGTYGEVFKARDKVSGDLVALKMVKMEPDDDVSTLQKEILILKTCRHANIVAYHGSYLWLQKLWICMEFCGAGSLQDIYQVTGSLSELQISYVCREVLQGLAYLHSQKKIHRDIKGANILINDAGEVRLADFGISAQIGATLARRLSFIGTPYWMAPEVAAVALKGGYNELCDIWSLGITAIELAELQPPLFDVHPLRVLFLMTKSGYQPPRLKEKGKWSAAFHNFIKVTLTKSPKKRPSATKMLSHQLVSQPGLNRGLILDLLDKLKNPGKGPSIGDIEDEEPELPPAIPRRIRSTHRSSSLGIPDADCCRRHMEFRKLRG
Protocol: Example B2: HPK1 Lantha Binding Assay (“Lanth”)
The compounds to be tested were diluted by preparing 12.5 uL/well of 5 mM compound (100×) in columns 2 and 13 and 10 ul/well of DMSO in columns 3-12, 14-23, and wells A1-H1 and I24-P24 of the compound plate using a Bravo liquid handling platform. For the reference compound, the top concentration was 1 mM. To the plate was added 10 ul 2 mM staurosporine in wells J1-P1 and A24-H24. A 11 point 5-fold compound serial dilution was performed using the Bravo liquid handling platform. From the plate were transferred 2.5 ul of the solutions from column 2 and column 13 to the 10 ul of DMSO in columns 3 and 14 & so on. The compound plate was centrifuged at 2500 rpm for 1 min. From the compound plate was transferred 80 nl of the compounds into an assay plate using the Echo liquid handler system. One compound plate makes two assay plates. Each assay plate is sealed and stored in an N2 cabinet.
The following assay concentrations and times were used: 2 nM HPK1, 2 nM Eu-Anti-GST Ab, and 15 nM Tracer222, with 60 min incubation time.
For the binding assay, 4 ul 2×HPK1 and Eu-anti-GST antibody were added to each well of the assay plate using a Multidrop reagent dispenser. The solutions were incubated in a 23 C incubator for 1 h. To each well of the assay plate was added 4 ul 2×Tracer-222 using a Multidrop reagent dispenser. The solutions were again incubated in a 23 C incubator for 1 h. The results of the assay were read using an Envision plate reader with the following parameters: TR_FRET, 340ex/615 and 665em; 100 usec Delay; and 200 usec integration.
Compound Ki was analyzed using Morrison ki fit model in XL-fit • a. fit=(1−((((E+x)+(Ki*(1+(S/Kd))))−(((((E+x)+(Ki*(1+(S/Kd))))^2)−((4*E)*x))^0.5))/(2*E))) • res=(y-fit) • b. Parameters: • E=enzyme concentration • S=Tracer222 concentration, Kd=Tracer222 Kd • All measurements reported using the same units (uM)

Ki	Compound
0.39 nM	Cc1c(-c2cc3cc(Nc4cc5n(n4)CC(=O)N(C(C)C)CC5)ncc3cn2)cnc2c1NCCO2 [Compound 103, 6-isopropyl-2-((6-(8-methyl-2,3-dihydro-1H-pyrido[2,3-b][1,4]oxazin-7-yl)-2,7-naphthyridin-3-yl)amino)-5,6-dihydro-4H-pyrazolo[1,5-d][1,4]diazepin-7(8H)-one]
3.9 nM	Cc1cc(Nc2cc3cc(-c4cnccc4C)ncc3cn2)nc(N)n1 [Compound 210, 6-methyl-N^4-(6-(4-methylpyridin-3-yl)-2,7-naphthyridin-3-yl)pyrimidine-2,4-diamine]

The next lines start with the molecule.

Compound	Ki
Cc1ccncc1-c1cc2cc(Nc3ccc(C(=O)N(C)C)cn3)ncc2cn1 [Compound 204, N,N-dimethyl-6-((6-(4-methylpyridin-3-yl)-2,7-naphthyridin-3-yl)amino)nicotinamide]	24 nM
Cc1ccncc1-c1cc2cc(Nc3ccc(CCO)cn3)ncc2cn1 [Compound 208, 2-(6-((6-(4-methylpyridin-3-yl)-2,7-naphthyridin-3-yl)amino)pyridin-3-yl)ethan-1-ol]	28 nM
CNS(=O)(=O)c1ccc(Nc2cc3cc(-c4cnccc4C)ncc3cn2)nc1 [Compound 207, N-methyl-6-((6-(4-methylpyridin-3-yl)-2,7-naphthyridin-3-yl)amino)pyridine-3-sulfonamide]	11 nM
